Data on twelve molecules can be found in patent US6706740B2, “Fungicidal heterocyclic aromatic amides and their compositions, methods of use and preparation” (Dow AgroSciences LLC, priority 1999, dated 2004).

Experiment [1] concerns Phytophthora infestans (PHYTIN). The experiment in a line: microbe, parasite or virus in culture. It is filed as cell-based. Particulars: Phytophthora infestans, read-out: PHYTIN in vitro Growth Inhibition.
The subject of the next experiment is Erysiphe graminis—ERYSGT. The experiment in a line: Powdery Mildew of Wheat, in vivo whole plant, 24 Hour Protectant. Particulars: Erysiphe, read-out: ERYSGT in vivo 1 Day Protectant.
For experiment [2], the system named is Leptosphaeria nodorum—LEPTNO. As to the kind of experiment: Glume Blotch of Wheat, in vivo whole plant, 24 Hour Protectant. Particulars: for pest or weed control at 100 ppm: Leptosphaeria, read-out: LEPTNO in vivo 1 Day Protectant.
For experiment [3], the system named is Stagonospora nodorum (Leptosphaeria nodorum—LEPTNO). The experiment in a line: In vitro fungal growth inhibition, Stagonospora nodorum (LEPTNO). It is filed as cell-based. Particulars: Leptosphaeria, read-out: LEPTNO in vitro Growth Inhibition.
Experiment [4] has as its system Phytophthora infestans—PHYTIN. As to the kind of experiment: whole plant or invertebrate. Format: in vivo. Particulars: Phytophthora, in Solanum lycopersicum, 24 h, read-out: PHYTIN in vivo 1 Day Protectant.
In experiment [5] the test system is Rhizoctonia solani (RHIZSO). The experiment in a line: microbe, parasite or virus in culture. It is filed as cell-based. Particulars: Rhizoctonia solani, read-out: RHIZSO in vitro Growth Inhibition.
Experiment [6] relates to Magnaporthe grisea (Pyricularia oryzae—PYRIOR). The experiment in a line: microbe, parasite or virus in culture. Format: cell-based. Particulars: Pyricularia oryzae, read-out: PYRIOR in vitro Growth Inhibition.
Experiment [7] relates to Puccinia recondita—PUCCRT. As to the kind of experiment: Brown Rust of Wheat, in vivo whole plant, 24 Hour Protectant. Particulars: Puccinia, read-out: PUCCRT in vivo 1 Day Protectant.
For the next experiment, the system named is Ustilago maydis (USTIMA). The experiment in a line: microbe, parasite or virus in culture. Format: cell-based. Particulars: Mycosarcoma maydis, read-out: USTIMA in vitro Growth Inhibition.
For experiment [8], the system named is Mycosphaerella graminicola (Septoria tritici—SEPTTR). As to the kind of experiment: In vitro fungal growth inhibition, Mycosphaerella graminicola (SEPTTR). It is filed as cell-based. Particulars: Zymoseptoria tritici, read-out: SEPTTR in vitro Growth Inhibition.
A further experiment deals with Septoria tritici—SEPTTR. As to the kind of experiment: Leaf Blotch of Wheat, in vivo whole plant, 24 Hour Protectant. Particulars: Zymoseptoria tritici, 24 h, read-out: SEPTTR in vivo 1 Day Protectant.
The mark [9] stands for this setting: 100 ppm spray, wheat, 24 hour protectant, control of fungal infection vs untreated plants.

Where two headings read alike, the source gives them in different places. Some results are limits rather than exact numbers.

Regarding `C=C(C)C(=O)O[C@H]1[C@H](C)OC(=O)[C@@H](NC(=O)c2nccc(OC)c2O)COC(=O)[C@@H]1Cc1ccccc1` [Compound 386], the inhibition at 25 ppm is under 80% in experiment [1]; over 80% in experiment [3] (25 ppm in growth medium); under 80% in [5]; under 80% in experiment [6]; under 80% in the experiment with Ustilago maydis (USTIMA); over 80% in [8] (25 ppm in growth medium). In addition, the pest or weed control at 100 ppm with Erysiphe graminis—ERYSGT (setting [9]) is 25 to 74%; in experiment [4], under 25%; in experiment [7] (setting [9]), 25 to 74%; with Septoria tritici—SEPTTR (setting [9]), 25 to 74%. Moreover, the “LEPTNO in vivo 1 Day Protectant” value in [2] (setting [9]) was “+ +”.

In the case of `COc1ccnc(C(=O)N[C@H]2COC(=O)[C@H](Cc3ccccc3)[C@@H](OC(=O)C3CC3)[C@H](C)OC2=O)c1O` [Compound 387], the inhibition at 25 ppm in [1] is under 80%; in experiment [3] (25 ppm in growth medium), over 80%; in experiment [5], over 80%; in experiment [6], over 80%; with Ustilago maydis (USTIMA), over 80%; in experiment [8] (25 ppm in growth medium) it was over 80%. For the same molecule, the pest or weed control at 100 ppm in the experiment on Erysiphe graminis—ERYSGT (setting [9]) was 25 to 74%; in experiment [4], under 25%; in [7] (setting [9]), 25 to 74%; in the experiment on Septoria tritici—SEPTTR (setting [9]), 25 to 74%. Besides, the “LEPTNO in vivo 1 Day Protectant” value in experiment [2] (setting [9]) was “+ +”.

Regarding `COc1ccnc(C(=O)N[C@H]2COC(=O)[C@H](Cc3ccccc3)[C@@H](OC(=O)C3CCCC3)[C@H](C)OC2=O)c1O` [Compound 391], the inhibition at 25 ppm in [1] is under 80%; in experiment [3] (25 ppm in growth medium), over 80%; in [5], under 80%; in experiment [6], over 80%; in the experiment on Ustilago maydis (USTIMA), over 80%; in experiment [8] (25 ppm in growth medium), over 80%. Moreover, the pest or weed control at 100 ppm in the experiment with Erysiphe graminis—ERYSGT (setting [9]) is under 25%; in experiment [4], under 25%; in experiment [7] (setting [9]), 25 to 74%; with Septoria tritici—SEPTTR (setting [9]), 25 to 74%. Moreover, the “LEPTNO in vivo 1 Day Protectant” value in experiment [2] (setting [9]) is reported as “+ +”.

For `COc1ccnc(C(=O)N[C@H]2COC(=O)[C@H](Cc3ccccc3)[C@@H](OC(=O)C3CCCCC3)[C@H](C)OC2=O)c1O` [Compound 392], the inhibition at 25 ppm in [1] is under 80%; in experiment [3] (25 ppm in growth medium), over 80%; in [5] it was under 80%; in experiment [6], over 80%; in the experiment with Ustilago maydis (USTIMA) it was under 80%; in experiment [8] (25 ppm in growth medium), over 80%. In addition, the pest or weed control at 100 ppm in the experiment with Erysiphe graminis—ERYSGT (setting [9]) is 25 to 74%; in [4], under 25%; in [7] (setting [9]) it was 25 to 74%; in the experiment on Septoria tritici—SEPTTR (setting [9]), 25 to 74%. The “LEPTNO in vivo 1 Day Protectant” value in experiment [2] (setting [9]) is “+ +”.

For `COc1ccnc(C(=O)N[C@H]2COC(=O)[C@H](Cc3ccccc3)[C@@H](OC(=O)C3C(C)CCCC3C)[C@H](C)OC2=O)c1O` (stereo partly drawn) [Compound 393], the inhibition at 25 ppm in [1] is under 80%; in experiment [3] (25 ppm in growth medium) it was over 80%; in [5], under 80%; in experiment [6], over 80%; with Ustilago maydis (USTIMA), over 80%; in [8] (25 ppm in growth medium) it was over 80%. The pest or weed control at 100 ppm with Erysiphe graminis—ERYSGT (setting [9]) was under 25%; in [2] (setting [9]) it was 25 to 74%; in experiment [4], under 25%; in experiment [7] (setting [9]) it was 25 to 74%; in the experiment with Septoria tritici—SEPTTR (setting [9]), 25 to 74%.

Consider `COc1ccnc(C(=O)N[C@H]2COC(=O)[C@H](Cc3ccccc3)[C@@H](OC(=O)Cc3ccccc3)[C@H](C)OC2=O)c1O` [Compound 395], for which the inhibition at 25 ppm was under 80% in [1]; over 80% in [3]; under 80% in experiment [5]; under 80% in [6]; over 80% in the experiment on Ustilago maydis (USTIMA); over 80% in experiment [8]. Also, the pest or weed control at 100 ppm is under 25% in the experiment with Erysiphe graminis—ERYSGT (24 h); 25 to 74% in experiment [2] (24 h); under 25% in [4]; 25 to 74% in experiment [7] (24 h); 25 to 74% in the experiment with Septoria tritici—SEPTTR.

With `COc1ccnc(C(=O)N[C@H]2COC(=O)[C@H](Cc3ccccc3)[C@@H](OC(=O)/C=C(\C)CCC=C(C)C)[C@H](C)OC2=O)c1O` [Compound 396], the inhibition at 25 ppm in experiment [1] is under 80%; in experiment [3] (25 ppm in growth medium), over 80%; in experiment [5], under 80%; in [6], over 80%; in the experiment with Ustilago maydis (USTIMA), under 80%; in experiment [8] (25 ppm in growth medium) it was over 80%. The pest or weed control at 100 ppm was under 25% with Erysiphe graminis—ERYSGT (setting [9]); 25 to 74% in experiment [2] (setting [9]); under 25% in experiment [4]; 25 to 74% in experiment [7] (setting [9]); 25 to 74% in the experiment with Septoria tritici—SEPTTR (setting [9]).

On to `CCCCCCCCCCCCC(=O)O[C@H]1[C@H](C)OC(=O)[C@@H](NC(=O)c2nccc(OC)c2O)COC(=O)[C@@H]1Cc1ccccc1` [Compound 397], for which the inhibition at 25 ppm (in experiment [1]; in experiment [3] (25 ppm in growth medium); in [5]; in [6]; in the experiment with Ustilago maydis (USTIMA); in experiment [8] (25 ppm in growth medium)) was under 80% in each case. The pest or weed control at 100 ppm with Erysiphe graminis—ERYSGT (setting [9]) was under 25%; in [2] (setting [9]), 25 to 74%; in experiment [4], under 25%; in [7] (setting [9]) it was 25 to 74%; in the experiment on Septoria tritici—SEPTTR (setting [9]), 25 to 74%.

`CCCCCCCCCCCCCCCCCC(=O)O[C@H]1[C@H](C)OC(=O)[C@@H](NC(=O)c2nccc(OC)c2O)COC(=O)[C@@H]1Cc1ccccc1` [Compound 398]: the inhibition at 25 ppm in experiment [1] was under 80%; in experiment [3] (25 ppm in growth medium), over 80%; in [5], under 80%; in experiment [6] it was over 80%; in the experiment with Ustilago maydis (USTIMA) it was under 80%; in [8] (25 ppm in growth medium) it was over 80%. Also, the pest or weed control at 100 ppm in the experiment on Erysiphe graminis—ERYSGT (setting [9]) is under 25%; in experiment [2] (setting [9]) it was under 25%; in [4] it was under 25%; in [7] (setting [9]), 25 to 74%; in the experiment with Septoria tritici—SEPTTR (setting [9]), under 25%.

Consider `COc1ccnc(C(=O)N[C@H]2COC(=O)[C@H](Cc3ccccc3)[C@@H](OC(=O)NC(C)C)[C@H](C)OC2=O)c1O` [Compound 399], for which the inhibition at 25 ppm (in experiment [1]; in [3] (25 ppm in growth medium); in [5]; in experiment [6]; with Ustilago maydis (USTIMA); in [8] (25 ppm in growth medium)) was under 80% throughout. Also, the pest or weed control at 100 ppm was under 25% in the experiment on Erysiphe graminis—ERYSGT (setting [9]), under 25% in [4], 25 to 74% in [7] (setting [9]) and 25 to 74% in the experiment with Septoria tritici—SEPTTR (setting [9]). Moreover, in experiment [2] (setting [9]), the “LEPTNO in vivo 1 Day Protectant” value is on record as “+ +”.

As for `COc1ccnc(C(=O)N[C@H]2COC(=O)[C@H](Cc3ccccc3)[C@@H](OC(=O)NC(C)(C)C)[C@H](C)OC2=O)c1O` [Compound 400], the inhibition at 25 ppm is under 80% in experiment [1]; under 80% in [3] (25 ppm in growth medium); under 80% in experiment [5]; over 80% in experiment [6]; under 80% in the experiment with Ustilago maydis (USTIMA); under 80% in experiment [8] (25 ppm in growth medium). In addition, the pest or weed control at 100 ppm with Erysiphe graminis—ERYSGT (setting [9]) was 25 to 74%; in [4] it was under 25%; in experiment [7] (setting [9]), 25 to 74%; with Septoria tritici—SEPTTR (setting [9]), 25 to 74%. Also, the “LEPTNO in vivo 1 Day Protectant” value in experiment [2] (setting [9]) was “+ +”.

Take `COc1ccnc(C(=O)N[C@H]2COC(=O)[C@H](Cc3ccccc3)[C@@H](OC(=O)OC(C)C)[C@H](C)OC2=O)c1O` [Compound 401]: the inhibition at 25 ppm in experiment [1] is under 80%; in [3] (25 ppm in growth medium), over 80%; in [5] it was under 80%; in experiment [6], over 80%; in the experiment with Ustilago maydis (USTIMA), over 80%; in [8] (25 ppm in growth medium), over 80%. Moreover, the pest or weed control at 100 ppm in the experiment on Erysiphe graminis—ERYSGT (setting [9]) was under 25%; in [4] it was under 25%; in [7] (setting [9]), 25 to 74%; with Septoria tritici—SEPTTR (setting [9]), 25 to 74%. Further, in experiment [2] (setting [9]), the “LEPTNO in vivo 1 Day Protectant” value is “+ +”.

For orientation: inhibition means the drop in the measured response relative to a control, in per cent.
